Laboratory results published in patent publication US20250333377A1, “SOLID FORM OF NAPHTHYLAMINE MITOPHAGY INDUCER, AND PREPARATION METHOD THEREFOR, PHARMACEUTICAL COMPOSITION THEREOF AND USE THEREOF” (HANGZHOU PHECDAMED CO., LTD., priority 2023, published 2025).
In brackets after ≈: the same amount, converted by molar mass. Where two headings read alike, the source gives them in different places.

What was measured:
[1] = Hygroscopicity (vapor sorption analyser, DVS); type: physicochemical
Protocol: Single crystalline sample of compound TJ01-013 is tested using a Waters vaporsorption analyser. Taking a dry weighing tray, and laying a single sample of crystal form flat in the weighing tray, and the volume of the loaded samples is about ⅓ to ⅔ of that of the weighing tray. Instrument parameters are set as follows: temperature: 25° C.; equilibrium: dm/dt=0.01%/min (minimum time: 10 minutes, and maximum time: 180 minutes); drying: drying 120 minutes under 0% RH; RH (%) testing gradient: 10%; RH (%) test gradient range: 0%-90%-0%.

[2] = Solubility in FaSSIF, FeSSIF, water and SGF; type: physicochemical; settings: for solubility at 0.5 h / solubility at 2 h / solubility at 24 h: thermodynamic from solid; for Solubility: SGF
Protocol: Aliquots of the samples are placed in the media FaSSIF buffer, FeSSIF buffer, water and SGF and tested for solubility at 0.5, 2 and 24 hours, respectively.

[3] = target: Mcl-1 protein (Homo sapiens, UniProt Q07820); assay: Affinity test of recombinant Mcl-1 protein (SPR, Biacore); type: binding
Description: The binding affinity of the sodium salt D crystal form of TJ01-013 to the Mcl-1 protein is studied by an in vitro Surface Plasmon Resonance (SPR) test, using a Biacore analyzer and measuring with a CM5 chip being coupled to the protein.

[4] = test system: HEK293T cells; assay: Selective induction of autophagy in damaged mitochondria, Keima HEK293 cell model; type: cell-based; settings: 0 μM, 2.5 μM, 5 μM, 10 μM; mitochondria damaged with CCCP; FIG. 42; P=0.0425
Protocol: In HEK293T cells in vitro, fusing Keima fluorescent protein derived from the coral and the mitochondrial localization sequence of cytochrome C oxidase subunit IV asmtKeima protein, staining the nuclei with Hoechst33342 nuclear dye, and using the ThermoCellInsight™ CX7 LZR High Content Screening (HCS) platform at EX/EM=594 nm/620 nm conditions to assess mitophagy levels. The autophagy level of damaged mitochondria is tested by disrupting the mitochondrial membrane potential using […] Carbonyl cyanide 3-chlorophenylhydrazone (CCCP), causing mitochondrial damage.

[5] = Rat pharmacokinetic test; type: in vivo, SD rats; settings: for AUC(0-t): read-out: AUC0-24 h; for MRT inf: read-out: MRT0-∞; for MRT last: read-out: MRT0-24 h
Protocol: The plasma kinetic characteristics of the prototype drugs in healthy SD rats are analyzed after three doses of single gavage administration, a single dose of consecutive multiple gavage administration, and a single dose of intravenous injection administration of the sodium salt D crystal form of TJ01-013. These include the rate of absorption and degree of exposure, individual differences, dose relationship, rate of elimination, attainment of steady state, and possible accumulation of D crystal form of TJ01-013. After SD rats are administrated 10, 30, and 90 mg/kg of D crystal form of TJ01-013 by gavage in a single dose, 30 mg/kg of D crystal form of TJ01-013 by gavage in a single dose once per day for 7 consecutive days, and 10 mg/kg of D crystal form of TJ01-013 by intravenous injection in a single dose, the data of the concentrations of the prototype drugs in plasma at different time points in each animal are calculated by applying WinNonlin software fitting, and the mean pharmacokinetic parameters of each group of 6 animals (half of males and half of females) are summarized as shown in Table 12 below.

[6] = test system: renal ischemia-reperfusion (I/R) model of SD rats; assay: Acute kidney injury model caused by unilateral renal ischemia and reperfusion in rats; type: in vivo
Protocol: The pharmacodynamic effects of the D crystal form of TJ01-013 are studied in a renal ischemia-reperfusion (I/R) model of SD rats. Each group has twelve male rats of 280-300 g. They are administered by gavage once a day for 3 consecutive days. Three dose groups are divided into 3 mg/kg, 10 mg/kg and 30 mg/kg. The sham group and model control group were administered by equal volumes of 0.5% CMC-Na, and left renal artery ligation is performed 1 h after administration on the fourth day, and right nephrectomy is performed after 45 min of ischemia and before reperfusion, and then administered every day until 3 d after administration. The endpoint of the experiment is 3 d after administration.

[7] = both sexes, SD, rat, plasma, po, 10 mg/kg, SD rats, single gavage, 10 mg/kg
[8] = both sexes, SD, rat, plasma, po, 30 mg/kg, SD rats, multiple gavage, 30 mg/kg once per day for 7 days
[9] = both sexes, SD, rat, plasma, po, 30 mg/kg, SD rats, single gavage, 30 mg/kg
[10] = both sexes, SD, rat, plasma, po, 90 mg/kg, SD rats, single gavage, 90 mg/kg
[11] = both sexes, Sprague-Dawley (SD), rat, plasma, SD rats, single intravenous injection, 10 mg/kg
[12] = both sexes, rat, plasma, po, SD rats, single gavage, 10 mg/kg
[13] = both sexes, rat, plasma, po, SD rats, single gavage, 30 mg/kg
[14] = both sexes, rat, plasma, po, SD rats, single gavage, 90 mg/kg
[15] = 3 mg/kg, 10 mg/kg, and 30 mg/kg, P<0.05-0.001
[16] = 10 mg/kg and 30 mg/kg, versus model control, P<0.001

Chain of Mcl-1 protein (Q07820 whole entry, species assumed): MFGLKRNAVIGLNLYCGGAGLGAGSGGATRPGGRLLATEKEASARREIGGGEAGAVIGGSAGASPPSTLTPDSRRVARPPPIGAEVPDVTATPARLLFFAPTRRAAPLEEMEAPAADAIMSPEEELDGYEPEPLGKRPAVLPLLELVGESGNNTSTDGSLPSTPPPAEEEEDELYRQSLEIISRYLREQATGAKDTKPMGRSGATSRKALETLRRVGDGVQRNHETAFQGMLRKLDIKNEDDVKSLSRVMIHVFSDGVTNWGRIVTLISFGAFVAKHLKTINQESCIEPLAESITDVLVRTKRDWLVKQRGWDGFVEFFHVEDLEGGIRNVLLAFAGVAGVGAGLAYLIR

O=C(O)C[S+]([O-])c1cc(NS(=O)(=O)c2ccc(Br)cc2)c2ccccc2c1O (centres unmarked) [Embodiment 4]
Percentage weight gain by moisture absorption ([1]; 90% RH, 25° C.): 2.13%
Hygroscopicity (in words) ([1]; according to Table 7, 90% RH): slightly hygroscopic
solubility at 0.5 h ([2]; FaSSIF buffer, FaSSIF, 0.5 h): 3300 µg/mL (≈ 6.81 mM)
solubility at 2 h ([2]; FaSSIF buffer, FaSSIF, 2 h): 3270 µg/mL (≈ 6.75 mM)
solubility at 24 h ([2]; FaSSIF buffer, FaSSIF, 24 h): 2340 µg/mL (≈ 4.83 mM)
solubility at 0.5 h ([2]; FeSSIF buffer, FeSSIF, 0.5 h): 1320 µg/mL (≈ 2.73 mM)
solubility at 2 h ([2]; FeSSIF buffer, FeSSIF, 2 h): 1380 µg/mL (≈ 2.85 mM)
solubility at 24 h ([2]; FeSSIF buffer, FeSSIF, 24 h): 1290 µg/mL (≈ 2.66 mM)
Solubility (in words) ([2]; SGF (FIG. 41)): low solubility
Solubility ([2]; 0.5 h): Not detected
Solubility ([2]; 2 h): Not detected
Solubility ([2]; 24 h): Not detected
solubility at 0.5 h ([2]; Water, 0.5 h): 4100 µg/mL (≈ 8.46 mM)
solubility at 2 h ([2]; Water, 2 h): 4190 µg/mL (≈ 8.65 mM)
solubility at 24 h ([2]; Water, 24 h): 3870 µg/mL (≈ 7.99 mM)
Solubility (in words) ([2]; water, FaSSIF, FeSSIF (FIG. 41)): high solubility
Kd ([3]; CM5 chip coupled to the protein, read-out: Affinity constant KD): 1120 nM
kon ([3]; CM5 chip, read-out: Binding constant ka): 1090 M⁻¹ s⁻¹
Remarks (kind of binding) ([3]; listed as TJ0113): specific
Remarks (kind of binding) ([3]; listed as sodium salt D crystal form of TJ01-013): can bind specifically to Mcl-1 protein
Induction of autophagy in damaged mitochondria (mitophagy level, mtKeima) [4]: selectively induce autophagy in the damaged mitochondria
Dose relationship of exposure (Cmax, AUC0-24 h) ([5]; SD rats, single gavage 10, 30, 90 mg/kg): the increase ratio is smaller than that of the dose
Pharmacokinetic characteristics (in words) ([5]; SD rats, single gavage and intravenous administration): rapid absorption, low apparent volume of distribution and moderate elimination rate
Tissue distribution (in words) ([5]; SD rats, single intravenous administration): low degree tissue distribution
Difference of plasma pharmacokinetic parameters between male and female ([5]; SD rats, single intravenous, single and multiple gavage): no significant difference between male and female
AUC(0-t) ([5]; both sexes, SD, rat, plasma, iv, 10 mg/kg, SD rats, single intravenous injection, 10 mg/kg): 112000 ± 11000 ng·h/mL
AUC(0-inf) ([5]; both sexes, SD, rat, plasma, po, 10 mg/kg, SD rats, single gavage): 11100 ± 4320 ng·h/mL
AUC(0-t) [5, 7]: 10700 ± 4440 ng·h/mL
MRT inf [5, 7]: 4.82 ± 1.4 h
AUC(0-inf) [5, 8]: 26600 ± 14200 ng·h/mL
AUC(0-t) [5, 8]: 26200 ± 13700 ng·h/mL
MRT inf [5, 8]: 3.86 ± 0.947 h
AUC(0-inf) ([5]; both sexes, SD, rat, plasma, po, 30 mg/kg, SD rats, single gavage): 22800 ± 6860 ng·h/mL
AUC(0-t) [5, 9]: 22100 ± 6660 ng·h/mL
MRT inf [5, 9]: 5.11 ± 1.84 h
AUC(0-inf) ([5]; both sexes, SD, rat, plasma, po, 90 mg/kg, SD rats, single gavage): 50100 ± 12200 ng·h/mL
AUC(0-t) [5, 10]: 49900 ± 12200 ng·h/mL
MRT inf [5, 10]: 3.94 ± 0.754 h
AUC(0-inf) ([5]; both sexes, Sprague-Dawley (SD), rat, plasma, iv, 10 mg/kg, SD rats, single intravenous injection): 113000 ± 11000 ng·h/mL
MRT inf ([5]; both sexes, Sprague-Dawley (SD), rat, plasma, iv, 10 mg/kg, SD rats, single intravenous injection, 10 mg/kg): 2.06 ± 0.192 h
Cmax at 7 days ([5]; both sexes, Sprague-Dawley (SD), rat, plasma, po, SD rats, multiple gavage, 30 mg/kg once per day for 7 days): 5900 ± 3210 ng/mL
Tmax at 7 days ([5]; both sexes, Sprague-Dawley (SD), rat, plasma, po, SD rats, multiple gavage, 30 mg/kg once per day for 7 days, median (min, max)): 1 h
Tmax ([5]; both sexes, Sprague-Dawley (SD), rat, plasma, po, SD rats, single gavage, 10 mg/kg, median (min, max)): 0.5 h
Tmax ([5]; both sexes, Sprague-Dawley (SD), rat, plasma, po, SD rats, single gavage, 30 mg/kg, median (min, max)): 0.5 h
Tmax ([5]; both sexes, Sprague-Dawley (SD), rat, plasma, po, SD rats, single gavage, 90 mg/kg, median (min, max)): 1 h
clearance [5, 11]: 1.49 mL/min/kg
half-life [5, 11]: 2.26 ± 0.222 h
MRT last [5, 11]: 2 ± 0.168 h
bioavailability ([5]; both sexes, rat, plasma, oral, SD rats, single gavage 10 mg/kg versus intravenous 10 mg/kg, read-out: F (absolute bioavailability)): 9.55%
half-life at 7 days ([5]; both sexes, rat, plasma, po, SD rats, multiple gavage, 30 mg/kg once per day for 7 days): 1.94 ± 0.898 h
Cmax [5, 12]: 3130 ± 1660 ng/mL
half-life [5, 12]: 3.86 ± 1.47 h
MRT last [5, 12]: 3.84 ± 0.708 h
Cmax [5, 13]: 4730 ± 1200 ng/mL
half-life [5, 13]: 3.54 ± 2.55 h
MRT last [5, 13]: 4.42 ± 0.923 h
Cmax [5, 14]: 9980 ± 1850 ng/mL
half-life [5, 14]: 2.08 ± 0.754 h
MRT last [5, 14]: 3.89 ± 0.756 h
concentration at 5 min ([5]; both sexes, rat, plasma, SD rats, single intravenous injection, 10 mg/kg, read-out: C5 min): 79900 ± 11600 ng/mL
Vd ([5]; both sexes, rat, plasma, SD rats, single intravenous injection, 10 mg/kg, read-out: Vss): 0.184 L/kg
Accumulation ([5]; rats, 30 mg/kg gavage once a day for 7 consecutive days): no obvious accumulation
Creatinine clearance rate ([6]; 3 mg/kg, 10 mg/kg and 30 mg/kg, versus model control): different degrees of improvement
Expression level of inflammatory factor IL-1p in renal tissues [6, 15]: significantly decreased
Expression level of inflammatory factor IL-6 in renal tissues [6, 15]: significantly decreased
Urea nitrogen level ([6]; 10 mg/kg and 30 mg/kg, 72 h after ischemia-reperfusion): significant trend of decrease
Apoptotic cell rate in renal tissue [6, 16]: significantly decreased
Expression level of apoptotic factor caspase 9 in renal tissues [6, 16]: significantly decreased
Creatinine values ([6]; 10 mg/kg, 24 h, 48 h and 72 h after ischemia-reperfusion, versus model control, P<0.05-0.01): significantly decreased
Degree of renal lesions (tubular dilatation, necrosis, glomerular atrophy, inflammatory cell infiltration etc.) ([6]; 10 mg/kg, versus model control): significantly reduced
Creatinine clearance rate ([6]; 10 mg/kg, versus model control, P<0.05): statistically significant
Creatinine values ([6]; 30 mg/kg, 24 h and 72 h after reperfusion, P<0.05): significantly decreased
Degree of renal lesions (tubular dilatation, necrosis, glomerular atrophy, inflammatory cell infiltration etc.) ([6]; 30 mg/kg, versus model control): tendency to reduce the above lesions
Effect on body weight ([6]; 3, 10, and 30 mg/kg gavage, 72 h after reperfusion, versus model control): no significant effect
